Numbers after ± are expanded uncertainties.
Details: 298.15 K; 101.33 kPa; Crystal; X-ray diffraction

mass density [kg/m3]	SMILES
1740 ± 2	O.O.O.O.O.O.O.O=C([O-])c1cccc(C(=O)[O-])n1.O=C([O-])c1cccc(C(=O)[O-])n1.[Cu+2].[K+].[K+] [dipotassium copper 2,6-pyridinedicarboxylate heptahydrate]
1723 ± 2	O.O.O.O.O.O.O.O=C([O-])c1cccc(C(=O)[O-])n1.O=C([O-])c1cccc(C(=O)[O-])n1.[K+].[K+].[Ni+2] [dipotassium nickel 2,6-pyridinedicarboxylate heptahydrate]

From the NIST ThermoML archive (doi:10.1016/j.tca.2011.02.008)
